Reference: patent publication US7842294B2, “Proteins belonging to the Bcl-2 family and fragments thereof, and their use in cancer patients” (Survac APS, priority 2003, dated 2010)
Ends that are not written are not given here.

How the values were obtained:
HLA-A2 = molecular target: T1, HLA-A2 (Homo sapiens, UniProt P04439, D140Y/D185E/D98H/E176V/E277Q/G131W/G231S/I119V/I121R/I166T/I218V/L300P/L318F/N151K/N90K/P208A/P217A/Q86G/Q94H/R138H/R169H/T345S); experiment: Assembly assay for peptide binding to MHC class I molecules (stabilisation of HLA from TAP-deficient T2 cells); conditions: recovery of HLA-A2 measured at 50, 5, 0.5, 0.05 μM peptide; read-out: C50 (concentration of the peptide required for half maximal binding to HLA-A2)
T1 construct: empty HLA molecules released upon cell lysis, from the TAP-deficient cell line T2; endogenous in cells; host or cells: T2 (TAP-deficient cell line), metabolically labelled with [35S]-methionine and lysed
Method: This assembly assay is carried out as described previously (2), and it is based on stabilisation of the HLA molecule after loading of peptide to the peptide transporter deficient cell line T2. Subsequently, correctly folded stable HLA heavy chains are immunoprecipitated using conformation dependent antibodies and the peptide binding is quantitated.
The binding affinity of the synthetic peptides (Invitrogen, Carlsbad, Calif., USA) to HLA-A2 molecules, metabolically labelled with [^35S]-methionine, was measured in the assembly assay, as described previously. The assay is based on peptide-mediated stabilisation of empty HLA molecules released upon cell lysis, from the TAP-deficient cell line T2. Stably folded HLA-molecules were immune-precipitated using the HLA class I-specific, conformation-dependent mAb W6/32, and separated by isoelectric focusing (IEF) gel electrophoresis. MHC heavy chain bands were quantified using the ImageGauge Phosphorimager program (FUJI photo film Co., Carrollton, Tex., USA). The intensity of the band is directly related to the amount of peptide-bound class I MHC complex recovered during the assay. Subsequently, the extent of stabilisation of HLA-A2 is directly related to the binding affinity of the added peptide. The recovery of HLA-A2 was measured in the presence of 50, 5, 0.5, 0.05 μM of the relevant peptide. The C50 value was calculated for each peptide as the peptide concentration sufficient for half maximal stabilisation.
The amino acid sequence of the Bcl-2 protein was screened for the most probable HLA-A2 nona- and decamer peptide epitopes, using the main HLA-A2 specific anchor residues (2). […] The assembly assay is based on stabilisation of the class I molecule after loading of different concentrations of peptide to the TAP-deficient cell line T2. Subsequently correctly folded stable MHC heavy chains are immunoprecipitated using conformation-dependent antibodies.

[1] = test system: peptide epitope-specific interferon-γ releasing effector cells in PBL; experiment: IFN-γ ELISPOT on PBL stimulated once in vitro with peptide; assay type: cell-based, human
Method: To extend the sensitivity of the ELISPOT assay, PBL were stimulated once in vitro prior to analysis. At day 0, PBL or crushed lymph nodes were thawed and plated in 2 ml/well at a concentration of 2×10^6 cells in 24-well plates (Nunc, Denmark) in X-vivo medium (Bio Whittaker, Walkersville, Md.), 5% heat-inactivated human serum, and 2 mM of L-glutamine in the presence of 10 μM of peptide. Two days later 20 IU/ml recombinant interleukin-2 (IL-2) (Chiron, Ratingen, Germany) was added to the cultures. The cultured cells were tested for reactivity in the ELISPOT on day 12.
The ELISPOT assay was used to quantify peptide epitope-specific interferon-γ releasing effector cells as described previously (4). Briefly, nitrocellulose bottomed 96-well plates (MultiScreen MAIP N45, Millipore, Hedehusene, Denmark) were coated with anti-IFN-γ antibody (1-D1K, Mabtech, Nacka, Sweden). The wells were washed, blocked by X-vivo medium, and cells added in duplicates at different cell concentrations. Peptides were then added to each well and the plates were incubated overnight. The following day, media was discarded and the wells were washed prior to addition of biotinylated secondary antibody (7-B6-1-Biotin, Mabtech). The plates were incubated for 2 hours, washed and Avidin-enzyme conjugate (AP-Avidin, Calbiochem, Life Technologies) was added to each well. Plates were incubated at RT for 1 hour and the enzyme substrate NBT/BCIP (Gibco, Life Technologies) was added to each well and incubated at RT for 5-10 min. The reaction was terminated by washing with tap-water upon the emergency of dark purple spots. The spots were counted using the ImmunoSpot® Series 2.0 Analyzer (CTL Analyzers, LLC, Cleveland, US) and the peptide specific CTL frequency could be calculated from the numbers of spot-forming cells. All assays were performed in triplicates for each peptide antigen.

[2] = test system: antigen-specific CTL in PBL; experiment: Granzyme B (GrB) ELISPOT; assay type: cell-based, human
Method: The Granzyme B (GrB) ELISPOT assay was used for measuring antigen-specific CTL cytotoxicity as described. Briefly, nitrocellulose bottomed 96-well plates (MultiScreen MAIP N45, Millipore) were coated with GrB Capture Antibody (BD Biosciences, Brondby, Denmark). The wells were washed and blocked by X-vivo medium with 5% human serum. The cells were added at different cell concentrations. T2 cells and peptides were then added to each well and the plates were incubated 4 hours, medium was discarded and the wells were washed prior to addition of GrB Detection Antibody (BD Biosciences). The plates were incubated for 2 hours, washed and Avidin horseradish peroxidase (BD Biosciences) was added to each well. Plates were incubated at RT for 1 hour AEC Substrate Reagent (BD Biosciences) was added to each well and incubated at RT for 5-10 min. The reaction was terminated by washing with tap-water upon the emergency of red spots. The spots were counted and the peptide specific CTL frequency was calculated like for the INF-γ ELISPOT. All assays were performed in duplicate or triplicates for each peptide antigen.

T2 cells = experiment: 51Cr-release cytotoxicity assay with bcl208-isolated T cells; assay type: cell-based, human; conditions: bcl208 reactive T cells enriched from a breast cancer patient, day 5
[3] = test system: HLA-A2 positive breast cancer cell line MDA-MB-231; experiment: as above; assay type: cell-based, human; conditions: enriched bcl208 reactive T cells, Bcl-2 expressing
[4] = test system: HLA-A2 negative breast cancer cell line ZR75-1
[5] = PBL from 15 HLA-A2 positive breast cancer patients

PLFDFSWLSL [bcl208] was tested, and the EC50 (HLA-A2) was 7 µM, the “healthy individuals with CTL response” value ([1]; 12 healthy HLA-A2 positive individuals) was “one” and the “patients with spontaneous CTL response” value [1, 5] was “twelve”. The “patients with spontaneous CTL response (%)” value [1, 5] was “≈ 80%”, the “CLL patients with Bcl-2 response” value ([1]; ten HLA-A2 positive CLL patients, reactivity against bcl208 and bcl214, not broken down by peptide) was “five” and the “AML patients with Bcl-2 response” value ([1]; three AML patients, reactivity against bcl208 and bcl214, not broken down by peptide) was “two”. For the same sequence, the “pancreatic cancer patients with CTL response” value ([1]; two HLA-A2 positive pancreatic cancer patients) was “both”, the “GrB release in controls” value ([2]; breast cancer patient no. 16 and healthy control h1) was “no GrB release was detected” and the “recognition of peptide-pulsed T2 cells by CTL clones (GrB ELISPOT)” value ([2]; clones from HLA-A2/bcl208 bead-isolated cells, data not shown) was “Several of these clones showed specific recognition”. For the same sequence, the “killing of T2 cells loaded with peptide versus unloaded” value (T2 cells) was “only T2 cells pulsed with bcl208 were killed”, the “lysis of MDA-MB-231 cells” value [3] was “efficiently lysed” and the “cytotoxicity against ZR75-1 cells” value [4] was “no cytotoxicity was observed”.
